In US20230045112A1, “DISULFIRAM AND OTHER REDOX-RELATED COMPOSITIONS FOR BRAIN TUMORS” (Texas Tech University System, priority 2014, published 2023):

What was measured:
[1] = system: Normal astrocytes and NQO1-null cells; assay: Cytotoxicity of GNQ against normal and NQO1-null cells; format: cell-based
From the text: (§1) (FIG. 15B) Cytotoxicity of GNQ against normal cells astrocytes and primary neurons. (FIG. 15C) Cytotoxicity against NQO1 null cell line MDA-MB-231. (FIG. 15D) Cytotoxicity values against normal and cancer cells in micromoles. […] Normal astrocytes and NQO1-null cells were not sensitive to GNQ.

brain tumor cells = assay: Cytotoxicity of GNQ against brain tumor cells, NQO1 dependence; format: cell-based; details: coincubation with ES936 or dicumarol
From the text: as §1

NQO1 [2] = molecular target: T1, NQO1 (Homo sapiens, UniProt P15559); assay: NQO1 substrate assay (NADH utilization); format: biochemical
T1 sequence (P15559 whole entry): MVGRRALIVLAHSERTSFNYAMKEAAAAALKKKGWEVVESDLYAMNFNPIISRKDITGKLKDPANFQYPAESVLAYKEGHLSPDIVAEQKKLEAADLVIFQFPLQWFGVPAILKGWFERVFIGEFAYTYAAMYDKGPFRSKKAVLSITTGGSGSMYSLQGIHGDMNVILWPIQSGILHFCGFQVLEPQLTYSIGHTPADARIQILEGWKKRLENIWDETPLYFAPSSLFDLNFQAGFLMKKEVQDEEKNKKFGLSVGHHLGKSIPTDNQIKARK
Procedure: (§2) (FIG. 17A). The generation of ROS by GNQ was assessed by using fluorescent probes DCFDA and DHE (FIG. 17C). GNQ acts as NQO1 substrate in vitro. (FIG. 17B) Reduction pathways and subsequent reactions of GNQ. (FIG. 17C) Intracellular ROS levels were measured using DCFDA and DHE. (FIG. 17D) Anti-oxidants reversed the GNQ induced apoptosis. Antitumor efficacy of GNQ against intracranial DAOY medulloblastoma: The BBB permeability of GNQ was examined by pharmacokinetic analysis after IV injections in normal mice. […] Intracranial DAOY tumors were set up in nude mice and the tumor growth was assessed by quantitative bioluminescence. […] FIG. 18A, 18B show complete suppression of intracranial DAOY medulloblastoma growth by GNQ. GNQ was given IP at 25 mg/kg/d, 5 d/wk for about 4 weeks. […] (FIG. 18D) Ex-vivo bioluminescence from the isolated brains (FIG. 18E) Accumulation of GNQ in the brain when compared to plasma. (FIG. 18F) H&E staining of mouse brain sections showing the elimination of […] by GNQ. (FIG. 18G) Mean tumor volume radiance in the GNQ-treated group was compared with that in the control. Different substitutions (halogens, aryl, alkyl, and alkoxy groups) can be made to GNQ to append alkyl side chains to impart hydrophobicity to prepare BBB penetrating analogs.

[3] = system: Reactive oxygen species (ROS); assay: Intracellular ROS by GNQ (DCFDA and DHE); format: cell-based
Procedure: as §2

[4] = Pharmacokinetic analysis of GNQ after IV injections, BBB permeability; format: in vivo; details: mouse, brain, normal mice, read-out: accumulation in the brain, % of plasma levels
Procedure: as §2

[5] = system: intracranial DAOY medulloblastoma; assay: Intracranial DAOY medulloblastoma in nude mice treated with GNQ, bioluminescence; format: in vivo; details: IP 25 mg/kg/d, 5 d/wk for about 4 weeks
Procedure: Intracranial glioblastoma xenograft development in nude mice: GBM cells stably expressing luciferase and GFP are suspended at 2×10^5 cells/5 μl sterile PBS injected into mouse brains. For developing […], mice are anesthetized and placed on a stereotactic apparatus. For developing breast cancer brain metastases xenografts, brain-seeking breast cancer cells are injected into the left ventricle of the heart of each mouse under anesthesia. Three weeks later the mice are imaged for intracranial Firefly luciferase activity. Mice with intracranial bioluminescence are randomly divided into different groups for drug treatments. Imaging is performed 10 minutes after i.p. injection of D-luciferin (2 mg per animal) with mice lying in the prone position. Besides the bioluminescence studies, the survival of the human glioblastoma cell grafted mice after drug administrations are closely followed to generate the Kaplan-Meir curves.
(FIG. 17A). The generation of ROS by GNQ was assessed by using fluorescent probes DCFDA and DHE (FIG. 17C). GNQ acts as NQO1 substrate in vitro. (FIG. 17B) Reduction pathways and subsequent reactions of GNQ. (FIG. 17C) Intracellular ROS levels were measured using DCFDA and DHE. (FIG. 17D) Anti-oxidants reversed the GNQ induced apoptosis. […] Intracranial DAOY tumors were set up in nude mice and the tumor growth was assessed by quantitative bioluminescence. […]

DAOY cells = assay: Potentiation of TMZ cytotoxicity by GNQ; format: cell-based
From the text: (§3) To further validate the MGMT deficiency, tumor cells exposed to GNQ can be treated with BCNU and the interstrand DNA crosslinking induced by BCNU, which can be quantitated by ethidium bromide fluorescence assay. Thus, it is possible to take advantage of these altered DNA repair pathways to combine GNQ with TMZ and PARP inhibitors and perform antitumor efficacy studies in orthotopic xenografts of pediatric brain cancers.
(§4) FIG. 21A to 21D show the inhibition of MGMT activity (FIG. 21A) and its degradation (FIG. 21B) induced by GNQ in DAOY cells. […] (FIG. 21D) GNQ potentiates the cytotoxicity of TMZ.

MGMT [6] = molecular target: T2, MGMT (Homo sapiens, UniProt P16455); assay: MGMT inhibition by GNQ in DAOY cells; format: cell-based; parameters: endogenous in cells; host or cells: DAOY
T2 sequence (P16455 1-207): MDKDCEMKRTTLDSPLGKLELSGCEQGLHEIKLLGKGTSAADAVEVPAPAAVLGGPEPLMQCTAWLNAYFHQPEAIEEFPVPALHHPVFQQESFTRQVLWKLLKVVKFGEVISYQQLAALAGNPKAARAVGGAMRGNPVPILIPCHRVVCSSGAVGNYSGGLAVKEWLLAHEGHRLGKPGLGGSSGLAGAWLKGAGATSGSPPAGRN
From the text: as §3, §4

UW228 cells = assay: Cell cycle analysis (flow cytometry) and apoptosis markers; format: cell-based, human; details: 100 μM BCNU alone, 24 hours
Procedure: This was followed by 100 μM BCNU. […] After the treatments, cells were allowed to grow for 24 and 48 hours. At each of these time points cells were harvested and fixed in 70% ethanol. The cells were then washed with PBS and re-suspended in the presence of RNase (1 μg/ml) and propidium iodide (PI, 50 μg/ml) for 30 minutes. Cell cycle histograms were generated using a BD Accuri C6 flow cytometer.

MGMT [7] = molecular target: T2, MGMT; assay: Effect of proteasome inhibitor PS-341 on degradation of DSF-modified MGMT in UW228 cells; format: cell-based; parameters: endogenous in cells; host or cells: UW228, T98G
From the text: The samples were immunoblotted and probed with MGMT antibodies (right panel). The densitometric quantitation of protein bands on the western blots is shown as a line graph on the left. […] Cell lysates were western blotted for the MGMT protein. […] Kinetics of DNA interstrand crosslinks formed in UW228 cells after treatment with […] BCNU or […] melphalan is shown. […] They were then exposed to BCNU or melphalan. At times specified, the cells were harvested, DNA isolated and the extent of interstrand crosslinking of DNA was determined using the ethidium bromide fluorescence assay. Values are mean+S.D. The results were significant at P<0.05. […] The cells were trypsinized at times indicated and analyzed by flow cytometry.
Since the MGMT inactivated by BG is degraded through ub-proteolysis, it was of interest to investigate the mode of elimination of DSF-modified MGMT protein. Therefore, first, we compared the in vitro degradation of DSF-treated and untreated rMGMT protein in rabbit reticulocyte lysates (RL), which are known to promote the proteasomal degradation. The control and DSF-modified MGMT proteins were incubated with RL in the presence of Mg++, ATP and ubiquitin at 37° C. The reaction mixtures were blotted and probed with MGMT antibodies. […] To show the involvement of the ub-proteolysis in cells a clinically used proteasome inhibitor. […]

NQO1 [8] = molecular target: T1, NQO1; assay: NQO1 activity inhibition; format: biochemical
From the text: (§5) A tumor-targeted NIR small-molecule dye called NQ-THR, was made and specifically accumulated in cancer cells for tumor NIR imaging and simultaneously trigger tumoricidal oxidative stress by acting as an NQO1-bioactivatable substrate. This […] fluorophore provides sufficient specificity and imaging guidance to promote tumor-specific cell death, which can be used for the cancer treatment as well. NQ-IND, the precursor of NQ-THR is an NQO1 activated prodrug itself, which undergoes redox-cycling to produce ROS in brain tumor cells. The functional groups on NQ-IND are amenable to designing NQO1-activated imaging and therapeutic compounds. ES936 (FIG. 20A) is a highly specific, potent, mechanism-based NQO1 inhibitor (55). Inspired by the structure of ES936, the inventors prepared a compound NQ-IND (FIG. 20B) by removing the inhibitory nitroaryl group. NQ-IND was tested for its activity against NQO1 inhibition and cell viability. […]. On the other hand, NQ-IND attached with the NIR fluorescent dyes can be used to generate a theranostic fluorescent probe NQ-THR with both imaging and therapeutic capabilities.

cancer cell lines = assay: Cell viability, cancer cell lines (NQ-IND); format: cell-based
From the text: as §5

normal cells = assay: Cell viability, normal cell lines (NQ-IND); format: cell-based
From the text: as §5

ROS = assay: Intracellular ROS by NQ-IND (DCF-DA fluorescence); format: cell-based
From the text: as §5

GBM cell lines = assay: Potentiation of TMZ in DMG-treated cells; format: cell-based
From the text: (§6) Synthesis of 2,4-Dimethylene glutaric acid (DMG), an α-ketoglutaric acid (α-KG) mimic for induction of epigenetic modifications: D-2 hydroxyglutarate (D-2HG) effectively replaces the normal metabolite, α-KG in 70% of low-grade pediatric gliomas with IDH mutations. α-KG is a substrate for TET1, TET2 DNA demethylases, and histone demethylases that maintain normal epigenetic homeostasis. D2-HG directly contributes to the CpG-island methylator phenotype (G-CIMP) and MGMT promoter methylation by competing with α-KG and inhibiting the demethylases. As an innovative strategy of understanding the glioma pathology and turning the tide against it, the inventors prepared DMG, a powerful α-KG derivative to replace the natural metabolite in epigenetic demethylase reactions; induction of such therapeutic methylation in non-IDH mutant GBMs was postulated to regress the tumors. […] DMG efficacy in xenografts and MGMT methylation therein are being tested.

TET1, MGMT = assay: Effect of DMG on TET1 and MGMT activities; format: cell-based; details: GBM cell lines
From the text: as §6

[9] = system: NQO1-proficient A549 tumors; assay: NIR imaging of NQO1-proficient tumors in live mice; format: in vivo, nude mice; details: one mg/kg intravenously
From the text: (§7) Engineering of NQO1 turn-on near-infrared (NIR) fluorophores and theranostic drugs thereof for pediatric brain cancer therapy and multimodality imaging. There is an imperative need for the development of cancer-specific imaging and therapeutic multifunctional or theranostic agents that can allow both imaging and drug delivery. Imaging in the near-infrared (NIR) range of 650-900 nm has been widely used in clinical procedures, because of deep tissue penetration, low autofluorescence, and reduced photon scattering. The inventors developed enzyme-activatable, cell-permeable, non-toxic, and biocompatible ‘turn-on’ NIR fluorescent probes (NIR-ASM, NQ-DCP) that provide accurate detection and visualization of endogenous NQO1 activity both in vitro and an in vivo preclinical model of lung and brain cancers. These fluorophores remain non-fluorescent until cleavage by NQO1 catalysis. In this study, subcutaneous tumors of A549 lung cancer (NQO1-positive) and MDAMB-231 breast cancer (NQO1 negative) were developed in the same animal on opposite flanks.
(§8) The animals were imaged in a IVIS imager at 500-640 nm.

[10] = system: NQO1-deficient MDAMB-231 tumors; assay: NIR imaging of NQO1-deficient tumors in live mice; format: in vivo, nude mice; details: one mg/kg intravenously
From the text: as §7, §8

[11] = system: MGMT inactivated cells and xenografts; assay: Antimetabolite cytotoxicity in MGMT inactivated cells and xenografts; format: cell-based
From the text: MGMT performs stoichiometric catalysis to remove mutagenic alkyl groups and dies in the process. […] Inhibition of MGMT by siRNA or 06-benzylguanine led to an S-phase block, perturbed DNA synthesis, and re-replication of the genome.

Cys145 of MGMT = molecular target: T3, Cys145 of MGMT (Homo sapiens, UniProt P16455); assay: BG-PEG-biotin probe binding to MGMT; details: UW228 cell extracts, 20 minutes
T3 construct: hexa-histidine; made in house; host or cells: E. coli
T3 sequence (P16455 1-207): T2 sequence (P16455 1-207)
Procedure: Drug treatments and exposure times are shown in labels. […] Cells were trypsinized at times shown. Levels of MGMT activity and protein were determined in cell extracts. […] BG-PEG-biotin (5 μM) was then added and incubations continued for 15 minutes. The samples were electrophoresed, blotted and probed with Streptavidin-HRP to detect the protein-bound biotin (upper panel). […] Streptavidin-HRP was used to probe the resulting blot (upper panel).
MGMT protein and activity levels were analyzed during the depletion and repletion (FIG. 3B). […] MGMT protein levels as determined by western analyses during the depletion/repletion cycle were consistent with and fully reflected the DNA repair activity profiles (FIG. 3B, left panel).

## O=C1NC2(c3ccccc31)c1ccccc1C1C(=O)c3cccc(O)c3C(=O)C12 (centres unmarked) [GNQ]
[1]
  sensitivity to GNQ: not sensitive
Brain tumor cells
  effect of NQO1 inhibitors on GNQ cytotoxicity: reversed by coincubation with NQO1 inhibitors ES936 or dicumarol
NQO1 [2]
  NADH utilized throughout the assay: greater than 1 equiv. of NADH
[3]
  ROS generation: generates Reactive oxygen species (ROS)
[4]
  Kp: ≤ 0.11
[5]
  body weight as a surrogate marker for toxicity: No changes in body weight
  tumor bioluminescence: complete loss of bioluminescence
DAOY cells
  sensitization to TMZ: sensitized to TMZ
MGMT [6]
  MGMT inhibition: remarkably inhibited

## O=NN(CCCl)C(=O)NCCCl [BCNU, 1,3-bis-2-chloroethylnitrosourea]
UW228 cells
  G2/M blockade, % of cells: 33 % of cells

## CC(C)C[C@H](NC(=O)[C@H](Cc1ccccc1)NC(=O)c1cnccn1)B(O)O [PS341, bortezomib]
MGMT [7]; 10 μM PS341 co-incubation with 50 μM DSF for 6 hours
  decrease of MGMT degradation: 20%
MGMT [7]; pretreated 6 hours with 10 μM PS341 followed by 50 μM DSF for 12 hours
  reduction in the loss of MGMT protein: > 50%

## COC1=CC(=O)c2c(c(CO)cn2C)C1=O [NQ-IND]
NQO1 [8]
  effect on NQO1 activity: did not affect the activity of NQO1
Cancer cell lines
  cancer cell proliferation: inhibit cancer cell proliferation selectively
Normal cells
  effect on normal cells: no effect on normal cells
ROS
  ROS by DCF-DA fluorescence: generate ROS

## COC1=CC(=O)c2c(c(COc3ccc([N+](=O)[O-])cc3)c(C)n2C)C1=O [ES936]
NQO1 [8]
  effect on NQO1 activity: completely inhibited the NQO1 activity

## C=C(CC(=C)C(=O)O)C(=O)O [DMG, 2,4-Dimethylene glutaric acid]
GBM cell lines
  potentiation of TMZ: 6-8 fold
TET1, MGMT
  effect on TET1, MGMT activities: curtailed TET1, MGMT activities

## CC1=C(C)C(=O)C(C(C)(C)CC(=O)Nc2ccc(/C=C/C3=CC(=C(C#N)C#N)CC(C)(C)C3)cc2)=C(C)C1=O [NIR-ASM]
[9]
  time to fluorescent signal in tumors: ≤ 5 min
[10]
  fluorescent signal in tumors: totally negative after 3 hours

## O=c1[nH]cc(F)c(=O)[nH]1 [5FU]
[11]
  increase in cytotoxicity in MGMT inactivated cells and xenografts: 10-15 fold

## CCN1C(=O)C=CC1=O [NEM, N-ethylmaleimide]
Cys145 of MGMT
  BG-PEG-biotin labeling of MGMT in cell extracts after drug: prevented the BG-labeling of the protein
